ChEMBL document CHEMBL1201862, “PubChem BioAssay data set” (2004)
Calls of active or inactive are those of the source.

What was measured:
[1] = viability loss in HepG2 hepatoma cells – cell-based, ATP luminescence, cherry-pick, activator set 2, cytotoxicity control, dose response (AID 1053143); assay type: functional
[2] = non-specific 3'UTR reporter inhibition in Clone20-Shn3RL – cell-based, Renilla luciferase, cherry-picked, counter-screen for Shn3 inhibitor project, dose response (AID 624133); assay type: functional
[3] = Shn3 3'UTR reporter signal decrease – cell-based, Clone20 osteoblasts, firefly luciferase, cherry-pick, set 2, Schnurri-3 inhibitor project, dose response (AID 720490); assay type: functional;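 also: actives lower the luminescence signal as inhibitors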
[4] = reduction of Shn3 3'UTR-driven luciferase in osteoblasts – cell-based, Clone20 osteoblasts, firefly luciferase, cherry-picked, dose response (AID 624132); assay type: functional;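 also: firefly luciferase luminescence from reporter carrying the Shn3 3'UTR in osteoblasts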
HeLa = assay: viability loss in HeLa cells – cell-based, ATP luminescence, cherry-pick samples, cytotoxicity control, dose response (AID 687004); assay type: functional; details: Homo sapiens
[5] = blockade of melanocortin 4 receptor signaling – cell-based, plate reader, cherry pick, counter-screen for LGR2 antagonist project, dose response (AID 743444); assay type: functional;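 also: transfected HEK 293 cells stimulated with alpha-MSH peptide; potency of inhibitors of the alpha-MSH evoked signal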
[6] = A549 cell cytotoxicity, dose response, cytotoxicity control, plate reader, cherry-pick, antagonist series (AID 743412); assay type: functional, cell-based
Caspase-8 = Caspase-8 (Homo sapiens, UniProt Q14790); assay: inhibitors of purified CASP8 protease – biochemical, Z-IETD-R110 fluorescence, cherry-picked samples, selectivity assay for caspase-6 inhibitor project, dose response (AID 743294)
[7] = molecular target: T1, DNA repair protein RAD52 homolog (Homo sapiens, UniProt P43351); assay type: functional, biochemical
T1 sequence (P43351 whole entry): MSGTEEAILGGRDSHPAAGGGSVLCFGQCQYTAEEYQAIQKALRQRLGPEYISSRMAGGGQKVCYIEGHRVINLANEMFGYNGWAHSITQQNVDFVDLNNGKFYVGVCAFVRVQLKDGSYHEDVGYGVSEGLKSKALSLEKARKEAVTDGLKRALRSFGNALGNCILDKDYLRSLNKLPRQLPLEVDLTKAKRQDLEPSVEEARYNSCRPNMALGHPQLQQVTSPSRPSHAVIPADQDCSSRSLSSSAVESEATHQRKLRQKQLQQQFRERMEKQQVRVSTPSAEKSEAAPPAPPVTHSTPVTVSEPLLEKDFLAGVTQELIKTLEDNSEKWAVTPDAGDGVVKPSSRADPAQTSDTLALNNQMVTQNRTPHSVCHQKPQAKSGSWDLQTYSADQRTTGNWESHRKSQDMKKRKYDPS

Caspase-6 = molecular target: T2, Caspase-6 (Homo sapiens, UniProt P55212); assay: inhibition of CASP6 peptide cleavage – biochemical, VEID-R110 fluorescence, cherry-pick, dose response (AID 720632)
T2 sequence (P55212 whole entry): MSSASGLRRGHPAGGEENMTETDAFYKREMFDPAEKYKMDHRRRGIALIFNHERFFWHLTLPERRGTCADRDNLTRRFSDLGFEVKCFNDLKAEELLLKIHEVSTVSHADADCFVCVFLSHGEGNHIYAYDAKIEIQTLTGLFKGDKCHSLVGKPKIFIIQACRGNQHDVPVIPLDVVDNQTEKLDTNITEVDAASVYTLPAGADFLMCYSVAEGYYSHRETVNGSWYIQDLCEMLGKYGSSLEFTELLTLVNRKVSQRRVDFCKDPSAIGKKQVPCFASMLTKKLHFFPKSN

Caspase-7 = Caspase-7 (Homo sapiens, UniProt P55210); assay: caspase-7 enzyme inhibition, selectivity check – biochemical, DEVD-R110 fluorescence, cherry-pick, selectivity assay for caspase-6 inhibitor project, dose response (AID 743295); assay type: functional
A549 = assay: viability loss in A549 cells – cell-based, plate reader, cherry-pick samples, cytotoxicity control, dose response (AID 687028); assay type: functional; details: Homo sapiens
[8] = molecular target: T3, Apoptotic protease-activating factor 1 (Homo sapiens, UniProt O14727); assay type: functional
T3 sequence (O14727 whole entry): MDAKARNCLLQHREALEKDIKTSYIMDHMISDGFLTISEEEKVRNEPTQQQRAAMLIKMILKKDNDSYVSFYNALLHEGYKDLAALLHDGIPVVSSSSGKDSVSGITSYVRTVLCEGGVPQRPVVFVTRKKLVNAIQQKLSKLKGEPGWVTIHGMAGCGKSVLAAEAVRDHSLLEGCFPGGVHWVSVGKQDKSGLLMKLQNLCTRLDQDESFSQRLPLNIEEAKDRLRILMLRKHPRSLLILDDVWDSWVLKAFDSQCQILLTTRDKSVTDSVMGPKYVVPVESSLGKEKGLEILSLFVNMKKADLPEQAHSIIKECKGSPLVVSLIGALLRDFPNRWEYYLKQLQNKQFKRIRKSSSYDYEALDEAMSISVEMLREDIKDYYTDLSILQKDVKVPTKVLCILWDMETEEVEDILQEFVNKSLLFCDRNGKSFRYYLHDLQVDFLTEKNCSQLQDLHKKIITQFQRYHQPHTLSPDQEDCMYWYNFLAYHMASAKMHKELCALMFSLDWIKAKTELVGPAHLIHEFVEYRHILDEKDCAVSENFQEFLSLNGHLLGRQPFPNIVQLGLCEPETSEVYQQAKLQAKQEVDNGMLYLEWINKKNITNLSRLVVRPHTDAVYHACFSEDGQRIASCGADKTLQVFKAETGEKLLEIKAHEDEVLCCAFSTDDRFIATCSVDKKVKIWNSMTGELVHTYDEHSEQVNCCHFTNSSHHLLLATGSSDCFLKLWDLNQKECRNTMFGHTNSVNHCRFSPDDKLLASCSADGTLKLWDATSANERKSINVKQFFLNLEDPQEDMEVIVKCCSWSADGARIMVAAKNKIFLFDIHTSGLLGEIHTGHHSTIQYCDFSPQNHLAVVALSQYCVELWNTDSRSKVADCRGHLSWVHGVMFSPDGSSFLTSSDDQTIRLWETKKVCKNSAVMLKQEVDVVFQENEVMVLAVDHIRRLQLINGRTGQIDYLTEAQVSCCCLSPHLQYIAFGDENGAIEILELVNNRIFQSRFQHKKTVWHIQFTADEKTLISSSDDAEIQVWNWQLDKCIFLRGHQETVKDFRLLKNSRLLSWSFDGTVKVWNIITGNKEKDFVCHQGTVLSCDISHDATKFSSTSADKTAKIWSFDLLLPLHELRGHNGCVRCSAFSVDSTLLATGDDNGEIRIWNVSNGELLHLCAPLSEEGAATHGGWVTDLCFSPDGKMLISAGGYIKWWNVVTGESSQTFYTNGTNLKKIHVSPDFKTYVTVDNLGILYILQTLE

[9] = blockers of bursicon-stimulated LGR2 cAMP reporter – cell-based, HEK293, CRE-luciferase reporter, cherry pick, set 2, dose response (AID 743343); assay type: functional;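 also: transfected cells were stimulated with diluted bursicon conditioned medium after compound addition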
Caspase-9 = Caspase-9 (Homo sapiens, UniProt P55211); assay: inhibitors of purified CASP9 protease – biochemical, fluorescence, plate reader, cherry-picked samples, selectivity assay for caspase-6 inhibitor project, dose response (AID 743293)
[10] = toxicity toward HepG2 liver cells – cell-based, plate reader, cherry-pick, antagonist series, cytotoxicity control, dose response (AID 743416); assay type: functional
Nonstructural protein 1 = Nonstructural protein 1 (Influenza A virus, UniProt Q194T2); assay type: functional, Influenza A virus (A/California/07/2009(H1N1))
[11] = A Cell-Based Confirmatory Screen for Compounds that Inhibit VEEV, TC-83 (6).; assay type: functional
[12] = A Cell-Based Confirmatory Screen for Compounds that Inhibit VEEV, TC-83 (8).; assay type: functional

Sequence of Caspase-7 (P55210 24-198 limits assumed): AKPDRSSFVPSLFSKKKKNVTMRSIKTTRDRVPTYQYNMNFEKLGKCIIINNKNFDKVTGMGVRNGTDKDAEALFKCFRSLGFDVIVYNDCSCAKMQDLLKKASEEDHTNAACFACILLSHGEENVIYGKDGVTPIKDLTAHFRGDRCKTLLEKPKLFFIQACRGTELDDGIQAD
Sequence of Caspase-7 (P55210 207-303 limits assumed): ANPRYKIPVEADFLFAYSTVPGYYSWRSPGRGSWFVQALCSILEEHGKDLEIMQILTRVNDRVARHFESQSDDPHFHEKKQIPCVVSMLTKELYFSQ
Sequence of Caspase-9 (P55211 1-315 limits assumed): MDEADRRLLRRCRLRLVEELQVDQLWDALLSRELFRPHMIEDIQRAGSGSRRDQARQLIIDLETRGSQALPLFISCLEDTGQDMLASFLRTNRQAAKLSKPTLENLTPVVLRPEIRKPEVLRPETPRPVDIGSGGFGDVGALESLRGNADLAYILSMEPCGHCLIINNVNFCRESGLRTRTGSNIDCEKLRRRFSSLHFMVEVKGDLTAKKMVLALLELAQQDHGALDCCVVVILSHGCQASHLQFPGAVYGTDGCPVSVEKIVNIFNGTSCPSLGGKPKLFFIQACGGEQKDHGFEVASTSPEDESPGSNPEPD
Sequence of Caspase-9 (P55211 331-416 limits assumed): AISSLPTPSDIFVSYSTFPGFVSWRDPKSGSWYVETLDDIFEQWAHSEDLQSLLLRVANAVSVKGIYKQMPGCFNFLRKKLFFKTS
Sequence of Caspase-8 (Q14790 217-374 limits assumed): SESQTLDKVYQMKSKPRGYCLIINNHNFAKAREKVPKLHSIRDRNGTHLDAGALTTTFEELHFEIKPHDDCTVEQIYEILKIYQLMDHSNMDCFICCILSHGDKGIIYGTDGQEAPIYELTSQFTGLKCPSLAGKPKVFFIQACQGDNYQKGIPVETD
Sequence of Caspase-8 (Q14790 385-479 limits assumed): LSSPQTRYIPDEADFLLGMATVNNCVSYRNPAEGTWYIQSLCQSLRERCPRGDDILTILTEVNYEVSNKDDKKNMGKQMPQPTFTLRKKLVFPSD
Sequence of Nonstructural protein 1 (Q194T2 whole entry): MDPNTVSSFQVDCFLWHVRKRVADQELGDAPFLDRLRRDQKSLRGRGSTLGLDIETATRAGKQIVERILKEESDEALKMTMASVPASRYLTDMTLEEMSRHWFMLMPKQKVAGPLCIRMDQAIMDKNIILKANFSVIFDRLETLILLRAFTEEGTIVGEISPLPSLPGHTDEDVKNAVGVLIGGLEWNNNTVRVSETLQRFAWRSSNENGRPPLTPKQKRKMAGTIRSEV

With O=C(/C=C/c1ccco1)Nc1cccnc1Cl as the molecule, how does the AC50 [1] read?
Its AC50 is > 52 µM (inactive).

With CCCCN1C=C(C(=O)OC)C(c2ccccc2Cl)C(C(=O)OC)=C1 as the molecule, how does the AC50 (cells) read?
Its AC50 is 2.12 µM (active).

Which results are given for Cc1onc(-c2ccccc2Cl)c1C(=O)N(C)C1CCCCC1?
AC50 [2]: 11.2 µM (active); AC50 [3]: 3.59 µM (active); AC50 [4]: 2.74 µM (active)

Which AC50 (HeLa) does the source give for COc1cccc(S(=O)(=O)Nc2ccc3c(c2)OC[C@H](C)NC[C@@H](C)[C@H](OC)CN(C)C3=O)c1 here?
Its AC50 is > 52 µM (inactive).

Which AC50 [5] does the source give for CN(C)CCCNc1cc(O)c2ncccc2c1 here?
Its AC50 is 25.3 µM (active).

What about the AC50 [6] of the same molecule?
Its AC50 is 8.67 µM (active).

What about the AC50 (Caspase-8) of the same molecule?
Its AC50 is 42 µM (active).

What about the AC50 [7] of the same molecule?
Its AC50 is 1.15 µM (active).

What about the AC50 (Caspase-6) of the same molecule?
The AC50 was 3.64 µM (active).

What about the AC50 (Caspase-7) of the same molecule?
The AC50 was 7.56 µM (active).

And the AC50 (A549)?
Its AC50 is 20.2 µM (active).

What about the IC50 [8] of the same molecule?
Its IC50 is 15.8 µM (active).

And the AC50 [9]?
Its AC50 is 32 µM (active).

And the AC50 (Caspase-9)?
Its AC50 is > 70 µM (inactive).

What about the AC50 [10] of the same molecule?
Its AC50 is 7.93 µM (active).

And the IC50 (Nonstructural protein 1)?
Its IC50 is 4.57 µM (active).

With COc1cccc(-n2c(CN3CCNCC3)nc3ccc([N+](=O)[O-])cc3c2=O)c1 as the molecule, how does the IC50 [11] read?
Its IC50 is 10.4 µM (active).

What about the IC50 [12] of the same molecule?
Its IC50 is 10.4 µM (active).
